Reference: patent publication US20180213779A1, “PESTICIDALLY ACTIVE HETEROCYCLIC DERIVATIVES WITH SULPHUR CONTAINING SUBSTITUENTS” (SYNGENTA PARTICIPATIONS AG, priority 2015, published 2018)

Assays:
[1] = tested on: Plutella xylostella (Diamond-Back Moth); test: Example B3: Plutella xylostella larvicide, feeding/contact activity, preventative (artificial diet, 96-well); format: in vivo; conditions: 216 h, application rate of 500 ppm, mortality assessed 9 days after treatment
Protocol: Example B3: Plutella xylostella (Diamond-Back Moth) larvicide, feeding/contact activity, preventative Artificial diet was dispensed into a 96-well microtiter plate and treated with aqueous test solutions prepared from 10′000 ppm DMSO stock solutions. Eggs were suspended above the treated diet and first instar larvae hatched onto the diet. Mortality was assessed 9 days after treatment.

[2] = tested on: Spodoptera littoralis (Egyptian Cotton Leaf Worm); test: Example B4: Activity against Spodoptera littoralis (sprayed cotton leaf discs); format: in vivo; conditions: foliar, 72 h, application rate of 200 ppm, L1 larvae, 3 days after infestation
Protocol: Example B4: Activity Against Spodoptera littoralis (Egyptian Cotton Leaf Worm)
Cotton leaf discs were placed on agar in 24-well microtiter plates and sprayed with aqueous test solutions prepared from 10′000 ppm DMSO stock solutions. After drying the leaf discs were infested with five L1 larvae. The samples were assessed for mortality, anti-feedant effect, and growth inhibition in comparison to untreated samples 3 days after infestation. Control of Spodoptera littoralis by a test sample is given when at least one of the categories mortality, anti-feedant effect, and growth inhibition is higher than the untreated sample.

[3] = tested on: Diabrotica balteata (Corn Root Worm); test: Example B6: Activity against Diabrotica balteata (sprayed maize sprouts); format: in vivo; conditions: 96 h, application rate of 200 ppm, L2 larvae, 4 days after infestation, read-out: effect in at least one of the two categories (mortality or growth inhibition)
Protocol: Example B6: Activity Against Diabrotica Balteata (Corn Root Worm)
Maize sprouts placed onto an agar layer in 24-well microtiter plates were treated with aqueous test solutions prepared from 10′000 ppm DMSO stock solutions by spraying. After drying, the plates were infested with L2 larvae (6 to 10 per well). The samples were assessed for mortality and growth inhibition in comparison to untreated samples 4 days after infestation.

[4] = tested on: Plutella xylostella (Diamond Back Moth); test: Example B11: Activity against Plutella xylostella (artificial diet, 24-well, L2 larvae); format: in vivo; conditions: 120 h, application rate of 200 ppm, 5 days after infestation, read-out: effect in at least one of the two categories (mortality or growth inhibition)
Protocol: Example B11: Activity Against Plutella xylostella (Diamond Back Moth)
24-well microtiter plates with artificial diet were treated with aqueous test solutions prepared from 10′000 ppm DMSO stock solutions by pipetting. After drying, the plates were infested with L2 larvae (10 to 15 per well). The samples were assessed for mortality and growth inhibition in comparison to untreated samples 5 days after infestation.

[5] = tested on: Euschistus heros (Neotropical Brown Stink Bug); test: Example B7: Activity against Euschistus heros (sprayed soybean leaves); format: in vivo; conditions: 120 h, application rate of 200 ppm, N2 nymphs, 5 days after infestation, read-out: effect in at least one of the two categories (mortality or growth inhibition)
Protocol: Example B7: Activity Against Euschistus heros (Neotropical Brown Stink Bug)
Soybean leaves on agar in 24-well microtiter plates were sprayed with aqueous test solutions prepared from 10′000 ppm DMSO stock solutions. After drying the leaves were infested with N2 nymphs. The samples were assessed for mortality and growth inhibition in comparison to untreated samples 5 days after infestation.

[6] = tested on: Myzus persicae (Green Peach Aphid); test: Example B8: Activity against Myzus persicae (sprayed sunflower leaf discs); format: in vivo; conditions: foliar, 144 h, application rate of 200 ppm, mixed ages, 6 days after infestation
Protocol: Example B8: Activity Against Myzus persicae (Green Peach Aphid)
Sunflower leaf discs were placed onto agar in a 24-well microtiter plate and sprayed with aqueous test solutions prepared from 10′000 ppm DMSO stock solutions. After drying, the leaf discs were infested with an aphid population of mixed ages. The samples were assessed for mortality 6 days after infestation.

[7] = tested on: Spodoptera littoralis (Egyptian Cotton Leaf Worm); test: Example B5: Activity against Spodoptera littoralis (systemic, lettuce grown on treated agar); format: in vivo; conditions: 144 h, test rate of 12.5 ppm, 6 days after infestation, uptake by lettuce roots, read-out: effect in at least one of the three categories (mortality, anti-feeding, or growth inhibition)
Excerpt: Example B5: Activity Against Spodoptera littoralis (Egyptian Cotton Leaf Worm)
Test compounds were applied by pipette from 10′000 ppm DMSO stock solutions into 24-well plates and mixed with agar. Lettuce seeds were placed onto the agar and the multi well plate was closed by another plate which contained also agar. After 7 days the compound was absorbed by the roots and the lettuce grew into the lid plate. The lettuce leaves were then cut off into the lid plate. Spodoptera eggs were pipetted through a plastic stencil onto a humid gel blotting paper and the lid plate was closed with it. The samples were assessed for mortality, anti-feedant effect and growth inhibition in comparison to untreated samples 6 days after infestation.

[8] = tested on: Myzus persicae (Green Peach Aphid); test: Example B9: Activity against Myzus persicae (roots of pea seedlings in test solutions); format: in vivo; conditions: 144 h, test rate of 24 ppm, mixed ages, 6 days after placing seedlings into test solutions
Protocol: Example B9: Activity Against Myzus persicae (Green Peach Aphid)
Roots of pea seedlings infested with an aphid population of mixed ages were placed directly into aqueous test solutions prepared from 10′000 DMSO stock solutions. The samples were assessed for mortality 6 days after placing seedlings into test solutions.

Row | SMILES | melting point [°C] | pest or weed control at 500 ppm [1] [%] | effect (mortality or growth inhibition) at 200 ppm [3] [%] | other results
1 | CCS(=O)(=O)c1ccc(-n2cncn2)nc1-c1cc(-c2cc(C(F)(F)F)ccn2)n(C)n1 [Compound P31] | 238 to 240 | – | – | –
2 | CCS(=O)(=O)c1cc(-c2ccc(Cl)cc2)cnc1-c1cn(-c2cccc(C(F)(F)F)c2)nn1 [Compound P13, 5-(4-chlorophenyl)-3-ethylsulfonyl-2-[1-[3-(trifluoromethyl)phenyl]triazol-4-yl]pyridine] | – | ≥ 70 | ≥ 80 | percent control (mortality, anti-feedant effect or growth inhibition) at 200 ppm [2]: ≥ 80%; percent effect (mortality or growth inhibition) at 200 ppm [4]: ≥ 80%
3 | CCS(=O)(=O)c1cc(C(F)(F)F)cnc1-c1nnc(-c2ccc(C(F)(F)F)cc2)o1 [Compound P3] | – | – | – | percent control (mortality, anti-feedant effect or growth inhibition) at 200 ppm [2]: ≥ 80%
4 | CCS(=O)(=O)c1ccc(Cl)nc1-c1cc(-c2cncc(C(F)(F)F)c2)n(C)n1 [Compound P37] | 152 to 153 | – | – | –
5 | CCS(=O)(=O)c1ccc(Cl)nc1-c1cc(-c2ccc(C(F)(F)F)nc2)n(C)n1 [Compound P33, 6-chloro-3-ethylsulfonyl-2-[1-methyl-5-[6-(trifluoromethyl)-3-pyridyl]pyrazol-3-yl]pyridine] | 198 to 200 | – | – | –
6 | CCS(=O)(=O)c1cc(C(F)(F)F)cnc1-c1noc(-c2ccc(C(F)(F)F)cc2)c1C [Compound P8] | – | ≥ 70 | – | –
7 | CCS(=O)(=O)c1ccc(-n2cncn2)nc1-c1cc(-c2ccc(C(F)(F)F)nc2)n(C)n1 [Compound P35, 3-ethylsulfonyl-2-[1-methyl-5-[6-(trifluoromethyl)-3-pyridyl]pyrazol-3-yl]-6-(1,2,4-triazol-1-yl)pyridine] | 175 to 177 | – | – | –
8 | CCSc1cccnc1-c1cn(-c2cccc(C(F)(F)F)c2)nn1 [Compound P14] | – | ≥ 70 | ≥ 80 | percent effect (mortality or growth inhibition) at 200 ppm [5]: ≥ 80%; mortality at 200 ppm [6]: ≥ 80%; percent effect (mortality or growth inhibition) at 200 ppm [4]: ≥ 80%
9 | CCS(=O)(=O)c1cc(C(F)(F)F)cnc1-c1cn(-c2ccc(C(F)(F)F)nc2)nn1 [Compound P22] | – | ≥ 70 | ≥ 80 | percent control (mortality, anti-feedant effect or growth inhibition) at 200 ppm [2]: ≥ 80%; percent effect (mortality or growth inhibition) at 200 ppm [4]: ≥ 80%
10 | CCS(=O)(=O)c1cc(C(F)(F)F)ccc1-c1nnc(-c2ccc(C(F)(F)F)nc2)o1 [Compound P7] | – | ≥ 70 | – | –
11 | CCSc1cc(C(F)(F)F)cnc1-c1cc(-c2ccc(C(F)(F)F)cc2)on1 [Compound P11, 3-(3-ethylsulfanyl-5-(trifluoromethyl)pyridin-2-yl)-5-(4-(trifluoromethyl)phenyl)-isoxazole] | 145 to 146 | – | – | –
12 | CCS(=O)(=O)c1cccnc1-c1cn(-c2cncc(C(F)(F)F)c2)nn1 [Compound P20] | – | ≥ 70 | ≥ 80 | percent control (mortality, anti-feedant effect or growth inhibition) at 200 ppm [2]: ≥ 80%; percent effect (mortality, anti-feeding or growth inhibition) at 12.5 ppm [7]: ≥ 80%; mortality at 200 ppm [6]: ≥ 80%; mortality at 24 ppm [8]: ≥ 80%; percent effect (mortality or growth inhibition) at 200 ppm [4]: ≥ 80%
13 | CCSc1cc(C(F)(F)F)cnc1-c1cn(-c2cncc(C(F)(F)F)c2)nn1 [Compound P21] | – | ≥ 70 | ≥ 80 | –
14 | CCS(=O)(=O)c1cc(C(F)(F)F)cnc1-c1cn(-c2ccc(C(F)(F)F)cc2)nn1 [Compound P2, 3-(ethylsulfonyl)-5-(trifluoromethyl)-2-(1-(4-(trifluoromethyl)phenyl)-1H-1,2,3-triazol-4-yl)pyridine] | 212 to 213 | – | – | –
15 | CCSc1cccnc1-c1cn(-c2ccc(C(F)(F)F)cc2)nn1 [Compound P16, 3-ethylsulfanyl-2-[1-[4-(trifluoromethyl)phenyl]triazol-4-yl]pyridine] | – | ≥ 70 | – | percent effect (mortality or growth inhibition) at 200 ppm [4]: ≥ 80%
16 | CCS(=O)(=O)c1cc(C(F)(F)F)cnc1-c1nnc(-c2cc(C(F)(F)F)ccn2)o1 [Compound P5, 2-[3-ethylsulfonyl-5-(trifluoromethyl)-2-pyridyl]-5-[4-(trifluoromethyl)-2-pyridyl]-1,3,4-oxadiazole] | – | – | ≥ 80 | –
17 | CCS(=O)(=O)c1cccnc1-c1cn(-c2ccc(C(F)(F)F)cc2)nn1 [Compound P17, 3-ethylsulfonyl-2-[1-[4-(trifluoromethyl)phenyl]triazol-4-yl]pyridine] | – | ≥ 70 | ≥ 80 | percent control (mortality, anti-feedant effect or growth inhibition) at 200 ppm [2]: ≥ 80%; percent effect (mortality or growth inhibition) at 200 ppm [5]: ≥ 80%; percent effect (mortality or growth inhibition) at 200 ppm [4]: ≥ 80%
18 | CCS(=O)(=O)c1cccnc1-c1cc(-c2cc(C(F)(F)F)ccn2)n(C)n1 [Compound P30] | 171 to 173 | – | – | –
19 | CCSc1ccc(Cl)nc1-c1cc(-c2cc(C(F)(F)F)ccn2)n(C)n1 [Compound P28] | 138 to 140 | – | – | –
20 | CCSc1ccc(Cl)nc1-c1cc(-c2ccc(C(F)(F)F)nc2)n(C)n1 [Compound P32, 6-chloro-3-ethylsulfanyl-2-[1-methyl-5-[6-(trifluoromethyl)-3-pyridyl]pyrazol-3-yl]pyridine] | 136 to 138 | – | – | –
21 | CCS(=O)(=O)c1ccc(-n2cncn2)nc1-c1cc(-c2cncc(C(F)(F)F)c2)n(C)n1 [Compound P39] | 235 to 237 | – | – | –
22 | CCSc1ccc(Cl)nc1-c1cc(-c2cncc(C(F)(F)F)c2)n(C)n1 [Compound P36] | 125 to 126 | – | – | –
23 | CCS(=O)(=O)c1cccnc1-c1cn(-c2ccc(C(F)(F)F)nc2)nn1 [Compound P25] | – | ≥ 70 | ≥ 80 | percent effect (mortality or growth inhibition) at 200 ppm [5]: ≥ 80%; mortality at 24 ppm [8]: ≥ 80%; percent effect (mortality or growth inhibition) at 200 ppm [4]: ≥ 80%
24 | CCS(=O)(=O)c1cccnc1-c1cc(-c2ccc(C(F)(F)F)nc2)n(C)n1 [Compound P34, 3-ethylsulfonyl-2-[1-methyl-5-[6-(trifluoromethyl)-3-pyridyl]pyrazol-3-yl]pyridine] | 160 to 162 | – | – | –
25 | CCS(=O)(=O)c1cc(C(F)(F)F)cnc1-c1cn(-c2cncc(C(F)(F)F)c2)nn1 [Compound P23] | – | ≥ 70 | ≥ 80 | percent control (mortality, anti-feedant effect or growth inhibition) at 200 ppm [2]: ≥ 80%; percent effect (mortality, anti-feeding or growth inhibition) at 12.5 ppm [7]: ≥ 80%
26 | CCS(=O)(=O)c1ccc(Cl)nc1-c1cc(-c2cc(C(F)(F)F)ccn2)n(C)n1 [Compound P29] | 255 to 257 | – | – | –
27 | CCS(=O)(=O)c1cccnc1-c1cn(-c2cccc(C(F)(F)F)c2)nn1 [Compound P15] | – | ≥ 70 | ≥ 80 | percent control (mortality, anti-feedant effect or growth inhibition) at 200 ppm [2]: ≥ 80%; percent effect (mortality, anti-feeding or growth inhibition) at 12.5 ppm [7]: ≥ 80%; percent effect (mortality or growth inhibition) at 200 ppm [5]: ≥ 80%; mortality at 200 ppm [6]: ≥ 80%; percent effect (mortality or growth inhibition) at 200 ppm [4]: ≥ 80%
28 | CCSc1cccnc1-c1cn(-c2ccc(C(F)(F)F)nc2)nn1 [Compound P24] | – | ≥ 70 | ≥ 80 | –
